Like-named read-outs stand apart in the source and are kept apart here.
Key:
HBV = experiment: Determination of anti-HBV activity in HepG2.2.15 cell (Experiment 2, HBV DNA in supernatant by qPCR); assay type: cell-based; details: Hepatitis B virus
Method: Experiment 2: Determination of Anti-HBV Activity in HepG2.2.15 Cell
(§1) Compound dilution. All the compounds for in vitro anti-HBV activity assay and cytotoxicity assay were 3-fold diluted into 8 concentrations. The final concentration of the tested compound was 30 μM, the final starting concentration of reference compound GLS4 was 1 μM, and the final concentration of DMSO was 0.5%.
HepG2.2.15 cell (4×10^4 cell/well) was inoculated into 96 well plate, and cultured overnight in 37° C., 5% CO2. On the second day, fresh culture medium containing different concentrations of the compound was added into the culture wells. On the fifth day, the old culture solution in the culture well was aspirated and fresh culture medium containing different concentrations of the compound was added.
On the eighth day, the supernatant in the culture well was collected for extraction of HBV DNA, and the content of DNA in the supernatant of HepG2.2.15 HBV was detected by qPCR. After the supernatant was collected, the medium and Cell-titer Glo reagent were added into the culture well, and the chemiluminescence value of each well was measured by microplate reader.
The activity calculation formula was as follows: Y=Bottom+(Top−Bottom)/(1+10^((LogIC50−X)*Hillslope));

C150 protein = target: T1, C150 protein (Hepatitis B virus genotype D subtype adw, UniProt P03147, C107A/C48A/C61A/R150C); experiment: In vitro anti-HBV nucleocapsid assembly activity test (Experiment 1, protein experiment); assay type: biochemical
T1 construct: purchased WuXi Apptec Co., Ltd
Method: Experiment 1: In Vitro Anti-HBV Nucleocapsid Assembly Activity Test
Main Reagents and Raw Materials:
C150 protein was expressed and purified by WuXi Apptec Co., Ltd.
BoDIPY® FL was purchased from Thermo Fisher Scientific.
Protein Fluorescent Label:
150 μL of 2% w/v skimmed milk was added into each well of 96-well plate, and incubated at room temperature for 2 hours. The skimmed milk was aspirated. The plate was washed with deionized water and dried, and stored at room temperature. C150 protein (3 mg per tube) was desalted with 5 ml Hitrap desalting column. The desalted C150 protein of each tube was added with 50 mM BoDIPY® FL Fluorescent Dye (20 μl), and incubated under 4° C. overnight in the dark after well mixed. Sephadex G-25 gel was used for filtration to remove fluorescent dyes that were not bounded onto C150. The C150 fluorescent labeling efficiency was calculated according to the following equation: [BoDIPY®FL]=A504/78,000 M^−1; [C150Bo]=(A280−[BoDIPY®FL]×1300 M^−1)/60,900 M^−1; Fluorescent Labeling Efficiency=[BoDIPY®FL]/[C150Bo];
The mother liquor of compound was diluted with DMSO to 6 mM, then diluted to 600 μM with 50 mM HEPES, and then further 3-fold diluted with 10 DMSO/50 mM HEPES to 8 concentrations.
C150Bo was diluted to 2 μM with 50 mM HEPES. 37.5 μL of C150Bo and 2.5 μL of compound at each concentration were added into a 96 well plate and well mixed, then incubated at room temperature for 15 minutes. 10 μl of 750 mM NaCl/50 mM HEPES were added into the each reaction well, and the final concentration of NaCl was 150 mM.
Into the control wells in the 0% protein group 10 μL of 50 mM HEPES was added, and the final concentration of NaCl was 0 mM.
Into the control wells in the 100% protein group 10 μL of 5 M/50 mM HEPES was added, and the final concentration of NaCl was 1 M.
The final concentration of DMSO was 0.5%, the maximum final concentration of the compound was 30 μM, and final concentration of C150Bo was 1.5 μM. The mixture was incubated at room temperature for 1 hour. Fluorescence signal was measured (excitation light was 485 nm; emission light was 535 nm).
Data Analysis % protein assembly=[1−(Sample fluorescence value−1 M NaCl fluorescence value)/(0 M NaCl fluorescence value−1 M NaCl fluorescence value)]×100.
IC50 value was calculated by prism software, and the equation was as follows: Y=Bottom+(Top−Bottom)/(1+10^((LogIC50−X)HillSlope));

[1] = Determination of cytotoxicity (Experiment 3, resazurin assay); assay type: cell-based; details: human
Method: as §1, with “0.5%. Experiment 3: Determination of Cytotoxicity The cytotoxicity of the test compound was tested using HepG2 cells. The cells were incubated for 4 days in the presence of the test compound. Cell activity was assessed using the resazurin assay.” for “0.5%.”

[2] = HepG2.2.15 cells, HBV DNA in supernatant on the eighth day, qPCR, read-out: Experiment 2 Cell experiment EC50
[3] = fluorescently labeled C150 (C150Bo) 1.5 μM, 150 mM NaCl, 1 hour at room temperature, read-out: Experiment 1 Protein experiment IC50
[4] = HepG2 cells, incubated for 4 days, resazurin assay, read-out: Experiment 3 Cytotoxicity CC50
[5] = HepG2.2.15, read-out: Experiment 2 Cell experiment EC50 (nM)

T1 sequence (P03147 1-150 C48A/C61A/C107A/R150C): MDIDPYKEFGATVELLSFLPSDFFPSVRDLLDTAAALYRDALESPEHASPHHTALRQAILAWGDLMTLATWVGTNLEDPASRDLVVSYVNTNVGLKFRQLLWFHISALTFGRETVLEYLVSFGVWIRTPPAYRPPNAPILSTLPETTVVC

Compound | EC50 (HBV; [2]) [nM] | IC50 (C150 protein; [3]) [nM] | CC50 at 4 days [1, 4] [nM] | IC50 (C150 protein) [nM] | EC50 (HBV; [5]) [nM] | CC50 at 4 days [1] [nM]
C[C@@H](NS(=O)(=O)c1c(Cl)c(C(=O)Nc2ccc(F)c(F)c2)n2c1C=CC2)C(F)(F)F [Compound 10a] | 0.1 to 100 | 1000 to 100000 | > 30000 |  |  | 
Cc1c(S(=O)(=O)NC2(C)COC2)c2n(c1C(=O)Nc1ccnc(C(F)F)c1)CC=C2 [Compound 10aa] | 100 to 1000 | 1000 to 100000 | > 30000 |  |  | 
C[C@@H](NS(=O)(=O)c1c(Cl)c(C(=O)Nc2cc(F)c(F)c(F)c2)n2c1C=CC2)C(F)(F)F [Compound 10b] | 0.1 to 100 |  | > 30000 | 1000 to 100000 |  | 
C[C@@H](NS(=O)(=O)c1c(Cl)c(C(=O)Nc2ccc(F)c(C#N)c2)n2c1C=CC2)C(F)(F)F [Compound 10c] | 0.1 to 100 |  | > 30000 | 1000 to 100000 |  | 
CC(NS(=O)(=O)c1c(Cl)c(C(=O)Nc2ccnc(C(F)F)c2)n2c1C=CC2)C(F)(F)F (stereo not drawn) [Compound 10d] | 100 to 1000 | 1000 to 100000 | > 30000 |  |  | 
CC(NS(=O)(=O)c1c(Cl)c(C(=O)Nc2ccnc(Cl)c2)n2c1C=CC2)C(F)(F)F (stereo not drawn) [Compound 10e] | 100 to 1000 | 1000 to 100000 | > 30000 |  |  | 
CC(NS(=O)(=O)c1c(Cl)c(C(=O)Nc2cc(F)nc(C#N)c2)n2c1C=CC2)C(F)(F)F (stereo not drawn) [Compound 10f] | 0.1 to 100 |  | > 30000 | 1000 to 100000 |  | 
Cc1c(S(=O)(=O)NC(C)C(F)(F)F)c2n(c1C(=O)Nc1ccc(F)c(F)c1)CC=C2 (stereo not drawn) [Compound 10g] | 0.1 to 100 | 1000 to 100000 | > 30000 |  |  | 
Cc1c(S(=O)(=O)NC2C3CCC2CC(O)(CO)C3)c2n(c1C(=O)Nc1ccc(F)c(F)c1)CC=C2 (stereo not drawn) [Compound 10mm] | 100 to 1000 | 1000 to 100000 | > 30000 |  |  | 
O=C(Nc1ccc(F)c(F)c1)c1c(Cl)c(S(=O)(=O)NC2C3CCC2CC(O)(c2cc(-c4ccccc4)on2)C3)c2n1CC=C2 (stereo not drawn) [Compound 10oo] | 100 to 1000 | 1000 to 100000 | > 30000 |  |  | 
Cc1c(S(=O)(=O)N2C3CCC2CC(O)(CO)C3)c2n(c1C(=O)Nc1cc(F)nc(C#N)c1)CC=C2 (stereo not drawn) [Compound 10vv] |  |  |  | 1000 to 100000 | 0.1 to 100 | > 30000
O=C(Nc1ccc(F)c(F)c1)c1c(Cl)c(S(=O)(=O)N2C3CCC2CC(O)(c2cc(-c4ccccc4)on2)C3)c2n1CC=C2 (stereo not drawn) [Compound 10ww] |  |  |  | 1000 to 100000 | 0.1 to 100 | > 30000
CC(NS(=O)(=O)c1c(Cl)c(C(=O)Nc2ccc(F)c(F)c2)n2c1CCC2)C(F)(F)F (stereo not drawn) [Compound 20a] | 0.1 to 100 | 1000 to 100000 | > 30000 |  |  | 
CC(NS(=O)(=O)c1c(Cl)c(C(=O)Nc2cc(F)c(F)c(F)c2)n2c1CCC2)C(F)(F)F (stereo not drawn) [Compound 20b] | 0.1 to 100 |  | > 30000 | < 1000 |  | 
CC(CO)NS(=O)(=O)c1c(Cl)c(C(=O)Nc2ccc(F)c(F)c2)n2c1CCC2 (stereo not drawn) [Compound 20cc] | 100 to 1000 | 1000 to 100000 | > 30000 |  |  | 
CC(CO)NS(=O)(=O)c1c(Cl)c(C(=O)Nc2ccc(F)c(C#N)c2)n2c1CCC2 (stereo not drawn) [Compound 20dd] | 100 to 1000 | 1000 to 100000 | > 30000 |  |  | 
CC(CO)NS(=O)(=O)c1c(Cl)c(C(=O)Nc2ccnc(C(F)F)c2)n2c1CCC2 (stereo not drawn) [Compound 20ee] | 0.1 to 100 | 1000 to 100000 | > 30000 |  |  | 

Compound | EC50 (HBV; [2]) [nM] | IC50 (C150 protein; [3]) [nM] | CC50 at 4 days [1, 4] [nM] | IC50 (C150 protein) [nM] | EC50 (HBV; [5]) [nM] | CC50 at 4 days [1] [nM]
CC(CO)NS(=O)(=O)c1c(Cl)c(C(=O)Nc2cc(F)nc(C#N)c2)n2c1CCC2 (stereo not drawn) [Compound 20ff] | 0.1 to 100 | 1000 to 100000 | > 30000 |  |  | 
Cc1c(S(=O)(=O)NC(C)CO)c2n(c1C(=O)Nc1ccnc(C(F)F)c1)CCC2 (stereo not drawn) [Compound 20ii] | 100 to 1000 | 1000 to 100000 | > 30000 |  |  | 
Cc1c(S(=O)(=O)NC(C)CO)c2n(c1C(=O)Nc1cc(F)nc(C#N)c1)CCC2 (stereo not drawn) [Compound 20jj] | 100 to 1000 | 1000 to 100000 | > 30000 |  |  | 
O=C(Nc1ccc(F)c(F)c1)c1c(Cl)c(S(=O)(=O)NC2C3CCC2CC(O)(CO)C3)c2n1CCC2 (stereo not drawn) [Compound 20kk] | 0.1 to 100 | 1000 to 100000 | > 30000 |  |  | 
N#Cc1cc(NC(=O)c2c(Cl)c(S(=O)(=O)NC3C4CCC3CC(O)(CO)C4)c3n2CCC3)cc(F)n1 (stereo not drawn) [Compound 20ll] | 0.1 to 100 | 1000 to 100000 | > 30000 |  |  | 
C[C@@H](NS(=O)(=O)c1c(Cl)c(C(=O)Nc2ccc(F)c(F)c2)n2c1C=CCC2)C(F)(F)F [Compound 30a] | 0.1 to 100 | < 1000 | > 30000 |  |  | 
C[C@@H](NS(=O)(=O)c1c(Cl)c(C(=O)Nc2ccc(F)c(C#N)c2)n2c1C=CCC2)C(F)(F)F [Compound 30b] | 0.1 to 100 |  | > 30000 | 1000 to 100000 |  | 
C[C@@H](NS(=O)(=O)c1c(Cl)c(C(=O)Nc2ccnc(Cl)c2)n2c1C=CCC2)C(F)(F)F [Compound 30c] | 0.1 to 100 |  | > 30000 | 1000 to 100000 |  | 
Cc1c(S(=O)(=O)NC2C3CCC2CC(O)(CO)C3)c2n(c1C(=O)Nc1ccc(F)c(F)c1)CCC=C2 (stereo not drawn) [Compound 30r] | 0.1 to 100 | 1000 to 100000 | > 30000 |  |  | 
N#Cc1cc(NC(=O)c2c(Cl)c(S(=O)(=O)NC3C4CCC3CC(O)(c3cc(-c5ccccc5)on3)C4)c3n2CCC=C3)cc(F)n1 (stereo not drawn) [Compound 30s] | 100 to 1000 | 1000 to 100000 | > 30000 |  |  | 
Cc1c(S(=O)(=O)NC2C3CCC2CC(O)(c2cc(-c4ccccc4)on2)C3)c2n(c1C(=O)Nc1cc(F)nc(C#N)c1)CCC=C2 (stereo not drawn) [Compound 30t] | 100 to 1000 | 1000 to 100000 | > 30000 |  |  | 
C[C@@H](NS(=O)(=O)c1c(Cl)c(C(=O)Nc2ccc(F)c(F)c2)n2c1CCCC2)C(F)(F)F [Compound 40a] | 0.1 to 100 | < 1000 | > 30000 |  |  | 
C[C@@H](NS(=O)(=O)c1c(Cl)c(C(=O)Nc2ccc(F)c(C#N)c2)n2c1CCCC2)C(F)(F)F [Compound 40b] | 0.1 to 100 |  | > 30000 | 1000 to 100000 |  | 
C[C@@H](NS(=O)(=O)c1c(Cl)c(C(=O)Nc2ccnc(Cl)c2)n2c1CCCC2)C(F)(F)F [Compound 40c] | 0.1 to 100 |  | > 30000 | 1000 to 100000 |  | 
CC(NS(=O)(=O)c1c(Cl)c(C(=O)Nc2cc(F)nc(C#N)c2)n2c1CCCC2)C(F)(F)F (stereo not drawn) [Compound 40d] | 0.1 to 100 | 1000 to 100000 | > 30000 |  |  | 
Cc1c(S(=O)(=O)NC(C)C(F)(F)F)c2n(c1C(=O)Nc1ccc(F)c(F)c1)CCCC2 (stereo not drawn) [Compound 40e] | 0.1 to 100 | 1000 to 100000 | > 30000 |  |  | 
Cc1c(S(=O)(=O)NC(C)C(F)(F)F)c2n(c1C(=O)Nc1ccc(F)c(C#N)c1)CCCC2 (stereo not drawn) [Compound 40f] | 0.1 to 100 | 1000 to 100000 | > 30000 |  |  | 

Source: patent US11591334B2, “Substituted pyrrolizines for the treatment of hepatitis B” (SHANGHAI LONGWOOD BIOPHARMACEUTICALS CO., LTD., priority 2017, dated 2023)
